Assay [1] concerns the target 72 kDa type IV collagenase (Homo sapiens, UniProt P08253). Kind of assay: Dose Response validation of uHTS RPN11 inhibitor hits using a MMP-2 Fluorescence assay. Format: functional.
A further assay deals with T1, Streptokinase A (Streptococcus pyogenes serotype M1, UniProt P10520).
T1 sequence (P10520 whole entry): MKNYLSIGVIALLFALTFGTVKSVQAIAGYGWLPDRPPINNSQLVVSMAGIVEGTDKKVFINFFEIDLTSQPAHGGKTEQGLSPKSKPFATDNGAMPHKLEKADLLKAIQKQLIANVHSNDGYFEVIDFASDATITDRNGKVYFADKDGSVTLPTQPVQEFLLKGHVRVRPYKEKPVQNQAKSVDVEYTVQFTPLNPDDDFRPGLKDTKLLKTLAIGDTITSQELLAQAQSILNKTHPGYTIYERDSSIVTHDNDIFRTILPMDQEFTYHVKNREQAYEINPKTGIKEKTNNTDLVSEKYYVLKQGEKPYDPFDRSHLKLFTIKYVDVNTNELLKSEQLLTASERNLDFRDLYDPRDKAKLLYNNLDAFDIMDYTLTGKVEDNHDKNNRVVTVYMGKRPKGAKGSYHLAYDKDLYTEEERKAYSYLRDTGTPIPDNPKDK
Kind of assay: S. pyogenes streptokinase expression inhibitors, potency, dose response, plasminogen activation absorbance, OD405 (AID 1914).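 Note: secreted streptokinase activity via plasminogen activation per viability signal from cell pellet.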 Format: functional, Streptococcus pyogenes M1 GAS.

Assay [2] concerns the target T2, Small ubiquitin-related modifier 1 (Homo sapiens, UniProt P63165). Kind of assay: inhibitors of SUMO1 partner interactions, dose response, biochemical, FRET (AID 624383). Format: functional. Conditions: read-out: IC50_Mean.
The next assay has as its system Streptococcus. Kind of assay: Group A Streptococcus viability loss, dose response, counter-screen for streptokinase expression inhibitor project, luminescence, BacTiterGlo (AID 1915).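 Note: potency for reduction of bacterial viability or growth.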 Format: functional, organism-based.
Assay [3] concerns the target T3, SUMO-activating enzyme (Homo sapiens, UniProt Q9UBT2). Briefly: SUMOylation inhibitor hit validation, confirmation, SUMOylation inhibitor project, biochemical, AlphaScreen (AID 2018). Format: functional.
Assay [4] deals with T3, SUMO-activating enzyme. Kind of assay: inhibitors of in vitro SUMOylation cascade, primary screen, biochemical, HTRF, uHTS (AID 2006). Format: protein-complex assay.
Assay [5] addresses T2, Small ubiquitin-related modifier 1. Kind of assay: inhibitors of SUMO1 peptide binding, dose response, biochemical, fluorescence polarization, uHTS hits (AID 624382). Format: functional. The conditions noted are these: read-out: IC50_Mean.
Another assay addresses Prothrombin (Bos taurus, UniProt P00735). Kind of assay: thrombin inhibition, dose response, biochemical, fluorescence polarization, uHTS hits (AID 602369). Format: functional.
Assay [6] concerns the target 26S proteasome non-ATPase regulatory subunit 14 (Homo sapiens, UniProt O00487). Briefly: inhibition of proteasome subunit RPN11 – biochemical, fluorescence polarization, uHTS hits, confirmation (AID 602368). Format: functional.
For assay [7], the system named is Streptococcus sp. 'group A'. Kind of assay: growth inhibition of control SK(-) GAS strain, dose response, counter-screen for streptokinase expression inhibitor project, luminescence, kanamycin, BacTiterGlo, confirmation (AID 1900). Format: functional, organism-based.
The next assay concerns HEK293. Briefly: inhibitors of LMP1-driven NF-kB reporter, dose response, cell-based, HEK293, luciferase, cherry-pick (AID 588343). Format: functional. The conditions noted are these: Homo sapiens.
Assay [8] can be described thus: cells. Format: functional, cell-based.
Assay [9] can be described thus: Luminescence Cell-Based Dose Retest to Confirm Inhibitors of Cancer Stem Cells. [Related pubchem assays (depositor defined):AID2717, AID2721]. Format: functional. Conditions: Homo sapiens.
The nature of assay [10]: Luminescence Cell-Based Dose Response HTS to Identify Inhibitors of 5'UTR Stem-Loop Driven Prion Protein mRNA Translation in H4 Neuroglioblastoma Cells. [Related pubchem assays: 1827 (Project Summary), 1813 (Primary HTS)]. Format: functional.
The target in assay [11] is Latent membrane protein 1 (Human herpesvirus 4 (strain B95-8), UniProt P03230). Kind of assay: TES1-eGFP NF-kB reporter inhibition versus Tet-On dsRED, dose response, selectivity assay for LMP1 NF-kB inhibitor project, imaging, HEK293T, dual-color eGFP/dsRED, cherry-picks (AID 588398). Format: functional, cell-based.
Sequence of Latent membrane protein 1 (P03230 whole entry): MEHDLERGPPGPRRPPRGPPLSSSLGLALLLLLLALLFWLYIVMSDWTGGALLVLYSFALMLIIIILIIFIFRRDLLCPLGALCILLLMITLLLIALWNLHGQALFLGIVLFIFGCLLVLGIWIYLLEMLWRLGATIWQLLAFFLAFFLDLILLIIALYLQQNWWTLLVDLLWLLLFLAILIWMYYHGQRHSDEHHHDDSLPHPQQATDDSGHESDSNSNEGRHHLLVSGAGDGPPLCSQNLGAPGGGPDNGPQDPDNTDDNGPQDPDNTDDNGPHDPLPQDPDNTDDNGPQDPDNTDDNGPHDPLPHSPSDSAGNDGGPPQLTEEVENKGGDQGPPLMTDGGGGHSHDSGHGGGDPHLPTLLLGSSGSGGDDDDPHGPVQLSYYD
The nature of assay [12]: inhibitors of SNCA 5'UTR-driven reporter translation, confirmation, H4 neuroglioma cells, luminescence (AID 1988). Format: functional, cell-based.
Assay [13] in a line: cells. Format: functional, cell-based. This is another data set of the same source.
Assay [14] can be described thus: insulin promoter down-regulators in MIN6 cells, imaging, high-content screening, mouse beta cells (AID 1628). Format: functional.
Assay [15] is described as follows: cytotoxicity in MIN6 insulinoma cells, dose response, cytotoxicity control, cell-based, mouse insulinoma (AID 2122).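 Note: confirmatory high-throughput counterscreen run to flag cytotoxic compounds; mouse MIN-6 beta cells carrying an insulin promoter eGFP reporter.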 Format: functional.
Assay [16] can be described thus: inhibitors of firefly luciferase expression or activity, dose response, H4 neuroglioma cells, luminescence (AID 1990). Format: functional, cell-based.
Another assay concerns INS1. Briefly: beta cell apoptosis inhibitors, cytokine rescue, dose response, luminescence, retest (AID 449756).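 Note: cell death triggered by IL-1 beta plus TNF-alpha plus IFN-gamma mixture; protective hits raise ATP signal compared with cytokine alone wells.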 Format: functional, cell-based. The conditions noted are these: Rattus norvegicus.
The target in assay [17] is Sphingosine 1-phosphate receptor 4 (Homo sapiens, UniProt O95977). Kind of assay: Late-stage fluorescence-based dose-response cell-based counterscreen assay to identify agonists of the Sphingosine 1-Phosphate Receptor 3 (S1P3): Sphingosine 1-Phosphate Receptor 4 (S1P4) agonist assay. Format: functional.
Sequence of Sphingosine 1-phosphate receptor 4 (O95977 whole entry): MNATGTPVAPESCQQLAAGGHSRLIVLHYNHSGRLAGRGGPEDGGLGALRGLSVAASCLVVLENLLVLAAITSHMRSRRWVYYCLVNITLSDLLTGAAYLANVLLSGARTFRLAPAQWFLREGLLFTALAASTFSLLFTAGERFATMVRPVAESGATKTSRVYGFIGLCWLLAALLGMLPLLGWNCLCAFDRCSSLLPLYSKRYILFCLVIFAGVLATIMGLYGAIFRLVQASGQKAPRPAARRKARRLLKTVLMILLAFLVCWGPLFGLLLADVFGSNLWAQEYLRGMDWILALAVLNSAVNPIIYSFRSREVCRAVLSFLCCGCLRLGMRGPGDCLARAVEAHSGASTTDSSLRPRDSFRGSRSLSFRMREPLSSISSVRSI
The target in assay [18] is Sphingosine 1-phosphate receptor 2 (Homo sapiens, UniProt O95136). Briefly: Late-stage fluorescence-based dose-response cell-based counterscreen assay to identify agonists of the Sphingosine 1-Phosphate Receptor 3 (S1P3): Sphingosine 1-Phosphate Receptor 2 (S1P2) agonist assay. Format: functional.
Sequence of Sphingosine 1-phosphate receptor 2 (O95136 whole entry): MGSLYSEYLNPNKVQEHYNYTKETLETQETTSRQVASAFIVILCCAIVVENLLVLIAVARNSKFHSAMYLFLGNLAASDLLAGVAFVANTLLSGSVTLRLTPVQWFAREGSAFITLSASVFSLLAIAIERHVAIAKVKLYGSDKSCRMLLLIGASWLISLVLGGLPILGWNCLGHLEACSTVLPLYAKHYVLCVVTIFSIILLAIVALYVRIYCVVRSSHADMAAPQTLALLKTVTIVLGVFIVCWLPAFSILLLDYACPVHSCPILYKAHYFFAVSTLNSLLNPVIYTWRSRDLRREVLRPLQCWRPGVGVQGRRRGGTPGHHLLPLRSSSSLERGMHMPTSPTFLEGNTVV
Assay [19] concerns the target Multidrug resistance protein CDR2 (Candida albicans (strain SC5314 / ATCC MYA-2876) (Yeast), UniProt P78595). Kind of assay: CaCDR2 efflux pump inhibitors in yeast, dose response, S. cerevisiae AD1-8u, singleplex, Cherry Pick1 hits (AID 588604). Format: functional.
Assay [20] deals with T4, Neuropeptides B/W receptor type 1 (Homo sapiens, UniProt P48145).
T4 sequence (P48145 whole entry): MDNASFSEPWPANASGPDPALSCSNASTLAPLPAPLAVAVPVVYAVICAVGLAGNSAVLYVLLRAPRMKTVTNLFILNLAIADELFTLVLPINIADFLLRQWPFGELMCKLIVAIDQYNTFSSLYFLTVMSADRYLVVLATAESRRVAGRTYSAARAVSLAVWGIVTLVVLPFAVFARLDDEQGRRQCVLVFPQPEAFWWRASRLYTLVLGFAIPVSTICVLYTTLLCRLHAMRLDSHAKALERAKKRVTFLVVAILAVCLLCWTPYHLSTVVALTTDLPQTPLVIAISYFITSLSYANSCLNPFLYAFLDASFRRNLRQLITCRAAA
Briefly: GPR7 antagonist potency, late-stage follow-up, cell-based, fluorescence, dose response, set 5 (AID 588566). Format: functional.

Assay [21] concerns the target Melanin-concentrating hormone receptor 1 (Homo sapiens, UniProt Q99705). Briefly: Late-stage fluorescence-based counterscreen for antagonists of the G-protein coupled receptor 7 (GPR7): cell-based dose response assay to identify antagonists of the melanin-concentrating hormone receptor 1 (MCHR1) Set 5. Format: functional.

Active and inactive are the calls of the source.

This is an account of results in ChEMBL document CHEMBL1201862, “PubChem BioAssay data set” (2004).

T2 sequence (P63165 whole entry): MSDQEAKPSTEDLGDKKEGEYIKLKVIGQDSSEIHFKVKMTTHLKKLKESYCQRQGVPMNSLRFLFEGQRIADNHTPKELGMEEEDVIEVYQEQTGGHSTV
T3 sequence (Q9UBE0 whole entry): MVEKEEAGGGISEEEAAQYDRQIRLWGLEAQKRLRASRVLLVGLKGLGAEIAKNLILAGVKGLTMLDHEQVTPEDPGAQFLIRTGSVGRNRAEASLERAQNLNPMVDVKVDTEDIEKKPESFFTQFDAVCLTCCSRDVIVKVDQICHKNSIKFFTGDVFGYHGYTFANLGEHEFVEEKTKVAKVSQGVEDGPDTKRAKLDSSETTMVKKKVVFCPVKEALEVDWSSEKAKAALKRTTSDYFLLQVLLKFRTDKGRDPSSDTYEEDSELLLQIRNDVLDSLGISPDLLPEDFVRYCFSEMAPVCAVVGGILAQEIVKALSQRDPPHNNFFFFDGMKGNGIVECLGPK
T3 sequence (Q9UBT2 whole entry): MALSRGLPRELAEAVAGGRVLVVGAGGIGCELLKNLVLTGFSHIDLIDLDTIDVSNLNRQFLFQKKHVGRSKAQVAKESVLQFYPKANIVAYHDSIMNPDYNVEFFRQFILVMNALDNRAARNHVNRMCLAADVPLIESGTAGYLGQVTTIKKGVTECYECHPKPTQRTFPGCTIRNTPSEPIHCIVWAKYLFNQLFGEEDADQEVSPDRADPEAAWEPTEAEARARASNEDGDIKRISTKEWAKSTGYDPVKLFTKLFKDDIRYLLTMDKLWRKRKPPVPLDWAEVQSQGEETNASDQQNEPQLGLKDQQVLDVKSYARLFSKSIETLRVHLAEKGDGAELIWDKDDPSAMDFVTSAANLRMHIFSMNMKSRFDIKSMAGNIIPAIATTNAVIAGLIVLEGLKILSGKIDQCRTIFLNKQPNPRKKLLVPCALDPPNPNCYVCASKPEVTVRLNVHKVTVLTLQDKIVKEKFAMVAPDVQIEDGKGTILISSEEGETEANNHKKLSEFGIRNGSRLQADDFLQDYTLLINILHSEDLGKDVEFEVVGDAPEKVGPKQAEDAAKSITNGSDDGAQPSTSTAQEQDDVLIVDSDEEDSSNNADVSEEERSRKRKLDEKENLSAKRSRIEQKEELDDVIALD
Sequence of 72 kDa type IV collagenase (P08253 whole entry): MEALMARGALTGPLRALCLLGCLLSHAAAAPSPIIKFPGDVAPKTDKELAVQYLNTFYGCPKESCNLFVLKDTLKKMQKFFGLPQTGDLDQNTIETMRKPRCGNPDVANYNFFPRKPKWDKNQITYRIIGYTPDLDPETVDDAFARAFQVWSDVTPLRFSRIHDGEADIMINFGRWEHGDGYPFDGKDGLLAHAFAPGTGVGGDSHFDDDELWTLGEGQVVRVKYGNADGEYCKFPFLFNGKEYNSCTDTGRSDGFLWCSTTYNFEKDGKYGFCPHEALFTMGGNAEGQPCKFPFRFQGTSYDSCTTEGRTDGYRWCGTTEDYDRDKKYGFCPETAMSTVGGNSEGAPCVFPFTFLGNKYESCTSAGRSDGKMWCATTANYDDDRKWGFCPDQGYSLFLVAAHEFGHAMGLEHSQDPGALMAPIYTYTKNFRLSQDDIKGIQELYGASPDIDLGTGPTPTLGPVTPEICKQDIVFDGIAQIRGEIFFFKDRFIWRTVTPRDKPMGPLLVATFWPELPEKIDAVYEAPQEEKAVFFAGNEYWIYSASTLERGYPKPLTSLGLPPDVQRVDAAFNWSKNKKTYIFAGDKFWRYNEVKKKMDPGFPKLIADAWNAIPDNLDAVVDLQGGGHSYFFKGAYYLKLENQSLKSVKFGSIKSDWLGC
Sequence of 26S proteasome non-ATPase regulatory subunit 14 (O00487 whole entry): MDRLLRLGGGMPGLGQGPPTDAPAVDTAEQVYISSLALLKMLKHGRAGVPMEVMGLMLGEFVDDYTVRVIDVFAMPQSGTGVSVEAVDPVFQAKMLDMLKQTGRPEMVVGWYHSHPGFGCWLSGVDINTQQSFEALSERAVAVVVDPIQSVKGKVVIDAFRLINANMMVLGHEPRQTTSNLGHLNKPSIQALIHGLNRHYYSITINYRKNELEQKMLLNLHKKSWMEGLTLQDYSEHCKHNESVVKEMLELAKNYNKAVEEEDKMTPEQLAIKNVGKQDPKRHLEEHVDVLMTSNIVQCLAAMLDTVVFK
Sequence of Multidrug resistance protein CDR2 (P78595 whole entry): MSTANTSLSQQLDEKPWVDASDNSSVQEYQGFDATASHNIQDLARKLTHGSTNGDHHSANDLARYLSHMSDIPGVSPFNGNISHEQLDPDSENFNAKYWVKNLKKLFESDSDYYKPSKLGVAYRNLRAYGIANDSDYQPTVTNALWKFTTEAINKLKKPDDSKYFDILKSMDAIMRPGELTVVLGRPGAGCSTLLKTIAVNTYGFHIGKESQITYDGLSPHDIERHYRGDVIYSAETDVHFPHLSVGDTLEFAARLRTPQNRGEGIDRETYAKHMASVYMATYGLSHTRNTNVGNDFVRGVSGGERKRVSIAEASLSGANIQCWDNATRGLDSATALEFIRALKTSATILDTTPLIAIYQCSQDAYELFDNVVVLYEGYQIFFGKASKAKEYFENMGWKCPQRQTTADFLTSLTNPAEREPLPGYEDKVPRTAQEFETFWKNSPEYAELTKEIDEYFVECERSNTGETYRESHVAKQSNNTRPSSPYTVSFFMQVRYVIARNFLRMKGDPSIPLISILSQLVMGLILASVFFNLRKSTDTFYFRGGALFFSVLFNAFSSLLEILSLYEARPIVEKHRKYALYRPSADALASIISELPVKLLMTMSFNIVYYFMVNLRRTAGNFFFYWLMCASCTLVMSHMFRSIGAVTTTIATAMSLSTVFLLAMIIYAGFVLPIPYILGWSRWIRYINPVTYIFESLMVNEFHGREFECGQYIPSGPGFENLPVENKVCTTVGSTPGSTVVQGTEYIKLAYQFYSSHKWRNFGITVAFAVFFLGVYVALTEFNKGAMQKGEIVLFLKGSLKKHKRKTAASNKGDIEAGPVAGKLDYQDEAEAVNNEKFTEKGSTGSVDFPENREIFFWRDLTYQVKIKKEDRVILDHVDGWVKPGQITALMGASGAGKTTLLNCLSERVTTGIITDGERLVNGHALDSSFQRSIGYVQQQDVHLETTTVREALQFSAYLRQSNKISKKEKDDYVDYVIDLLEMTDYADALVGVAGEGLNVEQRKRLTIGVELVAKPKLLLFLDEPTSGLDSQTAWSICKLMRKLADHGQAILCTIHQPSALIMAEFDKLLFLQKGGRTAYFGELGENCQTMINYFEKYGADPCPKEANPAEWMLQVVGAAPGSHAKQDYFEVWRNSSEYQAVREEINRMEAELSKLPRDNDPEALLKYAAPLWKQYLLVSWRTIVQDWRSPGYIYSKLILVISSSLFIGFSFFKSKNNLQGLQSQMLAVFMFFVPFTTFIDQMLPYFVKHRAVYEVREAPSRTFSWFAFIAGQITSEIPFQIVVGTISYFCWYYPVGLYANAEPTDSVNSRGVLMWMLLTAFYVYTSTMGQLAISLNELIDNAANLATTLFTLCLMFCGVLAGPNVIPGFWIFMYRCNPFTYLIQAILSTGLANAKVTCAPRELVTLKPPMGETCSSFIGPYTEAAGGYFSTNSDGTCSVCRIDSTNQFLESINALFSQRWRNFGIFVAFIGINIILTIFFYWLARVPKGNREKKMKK

Turning to `Sc1nnc(-c2cc(-c3ccccc3)[nH]n2)n1/N=C/c1ccc(Br)s1`, the IC50 is > 100 µM (inactive) in assay [1]; 7.25 µM (active) in [2]; 6.99 µM (active) at SUMO-activating enzyme [3]; 10.3 µM (active) at SUMO-activating enzyme [4]; > 66.6 µM (inactive) in [5]; 32.9 µM (active) on Prothrombin. Moreover, in assay [6], the IC50 was 14.5 µM (active). Moreover, the EC50 on Streptokinase A was > 150 µM (not active); in the assay with Streptococcus, > 150 µM (not active); in [7] it was 14.6 µM (active).

Turning to `CCOC(=O)c1c(C)[nH]c(C(=O)N/N=C\c2ccccc2O)c1C`, the AC50 in the assay on HEK293 is 4.91 µM (active); in assay [9], 3.54 µM (active); in assay [11], 14.6 µM (active); in the assay with INS1, 1.69 µM (active). For the same compound, the EC50 in “cells [8]” was 6.77 µM (active); in assay [10] it was > 120 µM (not active); in assay [12], 8.44 µM (active); in “cells [13]”, 41.9 µM (active); in assay [16] it was > 120 µM (not active). For the same compound, the IC50 in [14] was 2.25 µM (active); in [15], 1.99 µM (active).

For `O=C(c1cc(C2CC2)on1)N(CC1CCCCC1)C1CCCCC1`, the EC50 in [17] and in assay [18] was > 50 µM (inactive) each time.

On to `COc1cccc(-c2sc3ccc(OC)cc3c2-c2ccc(OCCN3CCCCC3)cc2)c1`, for which, in assay [19], the EC50 is 11.2 µM (active).

Turning to `Cc1cccc(C(C#N)c2c(Cl)cnn(Cc3cccc4ccccc34)c2=O)c1` (stereo unspecified), the IC50 in assay [20] was 0.379 µM (active); in assay [21] it was 18.8 µM (inactive).
